Measured values published in patent US12594267B2, “Capsid inhibitors for the treatment of HIV” (Gilead Sciences, Inc., priority 2018, dated 2026).
Read-outs that look alike come from different tables or passages of the source.

Columns and labels:
Assay type in all cases: cell-based, HIV-1
[1] = test system: NRTI-resistant viruses; details: Mutant/WT (LAI) EC50 ratio, MT-2 cells, mean ± s.d. of three experiments
Experimental: (§1) The antiviral activity of the compound of Formula (a) was tested against a panel of known HIV-1 mutants resistant to HIV PIs (ATV and DRV), NRTIs (TFV and FTC), NNRTIs (RPV and EFV) or INSTIs (RAL, EVG and DTG) using a cytopathic antiviral assay in MT-2 cells.

[2] = test system: WT HXB2D; experiment: Cytopathic antiviral assay in MT-2 cells, wild type HXB2D; details: Human immunodeficiency virus 1, MT2, read-out: WT HXB2D EC50, MT-2 cells, mean ± s.d. of three experiments in triplicate
Experimental: as §1, with “cells. The compound of Formula (Ia) was fully active against all tested mutants resistant to PIs (Table 11), NRTIs (Table 12), NNRTIs (Table 13) or INSTIs (Table 14).” for “cells.”

[3] = test system: PI-resistant viruses; experiment: Cytopathic antiviral assay in MT-2 cells, PI-resistant viruses; details: Mutant/WT (HXB2D) EC50 ratio, mean ± s.d. of three experiments
Experimental: as §1, with “cells. The compound of Formula (Ia) was fully active against all tested mutants resistant to PIs (Table 11), NRTIs (Table 12), NNRTIs (Table 13) or INSTIs (Table 14).” for “cells.”

[4] = test system: NNRTI-resistant viruses; experiment: Cytopathic antiviral assay in MT-2 cells, NNRTI-resistant viruses; details: Mutant/WT (HXB2D) EC50 ratio, mean ± s.d. of three experiments
Experimental: as §1, with “cells. The compound of Formula (Ia) was fully active against all tested mutants resistant to PIs (Table 11), NRTIs (Table 12), NNRTIs (Table 13) or INSTIs (Table 14).” for “cells.”

[5] = test system: INSTI-resistant viruses; experiment: Cytopathic antiviral assay in MT-2 cells, INSTI-resistant viruses; details: Mutant/WT (HXB2D) EC50 ratio, mean ± s.d. of three experiments
Experimental: as §1, with “cells. The compound of Formula (Ia) was fully active against all tested mutants resistant to PIs (Table 11), NRTIs (Table 12), NNRTIs (Table 13) or INSTIs (Table 14).” for “cells.”

[6] = NNRTI-resistance panel (Table 13)

In the case of `C[C@H](Cn1cnc2c(N)ncnc21)OCP(=O)(O)O` [TFV, tenofovir], the “EC50 Fold-Change” value ([1]; 6TAMs) is reported as 3.0 ± 1.1, the “EC50 Fold-Change” value ([1]; K65R) is reported as 2.4 ± 1.0 and the “EC50 Fold-Change” value ([1]; M184V) is reported as 0.9 ± 1.0.
With `O=C1Nc2ccc(Cl)cc2[C@@](C#CC2CC2)(C(F)(F)F)O1` [EFV, efavirenz] the EC50 ([2]; INSTI-resistance panel (Table 14)) was 1.37 ± 0.51 nM, the EC50 [2, 6] was 2.23 ± 0.18 nM and the EC50 ([2]; PI-resistance panel (Table 11)) was 1.64 ± 0.55 nM. For the same molecule, the “EC50 Fold-Change” value ([3]; G48V/V82A/L90M) was 0.9 ± 0.4, the “EC50 Fold-Change” value ([3]; G48V/V82S) was 0.7 ± 0.1 and the “EC50 Fold-Change” value ([3]; I50V) was 3.0 ± 0.9. The “EC50 Fold-Change” value ([3]; I84V/L90M) was 0.4 ± 0.1, the “EC50 Fold-Change” value ([4]; K103N) was 14.2 ± 2.7 and the “EC50 Fold-Change” value ([4]; K103N/Y181C) was greater than 22.4. The “EC50 Fold-Change” value ([4]; L100I/K103N) was greater than 22.4, the “EC50 Fold-Change” value ([4]; Y181C) was 3.3 ± 2.5 and the “EC50 Fold-Change” value ([4]; Y188L) was greater than 22.4. For the same molecule, the “EC50 Fold-Change” value ([5]; E92Q/N155H) was 1.2 ± 0.6, the “EC50 Fold-Change” value ([5]; E138K/Q148K) was 0.7 ± 0.3 and the “EC50 Fold-Change” value ([5]; G140S/Q148R) was 1.0 ± 0.3. The “EC50 Fold-Change” value ([5]; N155H/Q148R) was 1.1 ± 0.5, the “EC50 Fold-Change” value ([5]; R263K/M50I) was 1.3 ± 0.9 and the “EC50 Fold-Change” value ([5]; Y143R) was 0.9 ± 0.6.
With `Cc1cc(/C=C/C#N)cc(C)c1Nc1ccnc(Nc2ccc(C#N)cc2)n1` [RPV, rilpivirine] the EC50 [2, 6] was 0.93 ± 0.23 nM, the “EC50 Fold-Change” value ([4]; K103N) was 0.7 ± 0.3 and the “EC50 Fold-Change” value ([4]; K103N/Y181C) was 3.2 ± 1.4. The “EC50 Fold-Change” value ([4]; L100I/K103N) was 7.8 ± 2.6, the “EC50 Fold-Change” value ([4]; Y181C) was 5.9 ± 4.3 and the “EC50 Fold-Change” value ([4]; Y188L) was 6.9 ± 1.3.
